Earlier results in patent publication US6313179A, “Treatment of hyperproliferative skin disorders with C18 to C20 aliphatic alcohols” (Avanir Pharmaceuticals, priority 1998, dated 2001).

Details: oral ingestion; U.S. Pat. No. 3,031,376; cited from earlier work

| SMILES | physical performance of athletes |
| --- | --- |
| CCCCCCCCCCCCCCCCCCCCCCCCCCCCO [n-octacosanol, reference compound] | improved physical performance of athletes |
| CCCCCCCCCCCCCCCCCCCCCCCCCCCCCCO [triacontanol, reference compound] | improved physical performance of athletes |
| CCCCCCCCCCCCCCCCCCCCCCCCCCO [n-hexacosanol] | improved physical performance of athletes |
| CCCCCCCCCCCCCCCCCCCCCCCCO [n-tetracosanol] | improved physical performance of athletes |
